Species: Rattus norvegicus
Assay: DrugMatrix - Regimen: Daily Repeat
Assay type: toxicity, organism-based, Sprague-Dawley
Design: regimen Daily Repeat, gender Male, age 6-8 weeks
Conditions: in vivo, po, route oral GAVAGE, […]; for ABSOLUTE BASOPHIL / ABSOLUTE EOSINOPHIL / ABSOLUTE LYMPHOCYTE / ABSOLUTE MONOCYTE / ABSOLUTE SEGMENTED NEUTROPHIL / BASOPHIL / EOSINOPHIL / ERYTHROCYTE COUNT / HEMATOCRIT / HEMOGLOBIN / LEUKOCYTE COUNT / LYMPHOCYTE / MEAN CORPUSCULAR HEMOGLOBIN / MEAN CORPUSCULAR HEMOGLOBIN CONCENTRATION / MEAN CORPUSCULAR VOLUME / MONOCYTE / NEUTROPHIL / NUCLEATED RED BLOOD CELLS / PLATELET COUNT: tissue Blood; for ALANINE AMINOTRANSFERASE / ALBUMIN / ALKALINE PHOSPHATASE / ASPARTATE AMINOTRANSFERASE / BLOOD UREA NITROGEN / CARBON DIOXIDE / CHLORIDE / CHOLESTEROL / CREATINE PHOSPHOKINASE / CREATININE / GLUCOSE / LACTATE DEHYDROGENASE / LIPASE / PHOSPHORUS / POTASSIUM / SODIUM / TOTAL BILIRUBIN / TOTAL PROTEIN / URIC ACID: tissue Plasma
[1] = 0 mg/kg, 72 h, dose level Control, time 3 day
[2] = 0 mg/kg, 120 h, dose level Control, time 5 day
[3] = 35 mg/kg, 72 h, dose level Low, time 3 day
[4] = 35 mg/kg, 120 h, dose level Low, time 5 day

CC(=O)Oc1ccccc1C(=O)O [ASPIRIN]
ABSOLUTE BASOPHIL [1]: 0 CELLS/uL
ABSOLUTE EOSINOPHIL [1]: 0 CELLS/uL
ABSOLUTE LYMPHOCYTE [1]: 6275.67 CELLS/uL
ABSOLUTE MONOCYTE [1]: 40.67 CELLS/uL
ABSOLUTE SEGMENTED NEUTROPHIL [1]: 633.67 CELLS/uL
BASOPHIL [1]: 0%
EOSINOPHIL [1]: 0%
ERYTHROCYTE COUNT [1]: 5.2 x10E6/uL
HEMATOCRIT [1]: 32.78%
HEMOGLOBIN [1]: 12.98 G/DL
LEUKOCYTE COUNT [1]: 6.95 x10E3/uL
LYMPHOCYTE [1]: 90.17%
MEAN CORPUSCULAR HEMOGLOBIN [1]: 24.97 pg
MEAN CORPUSCULAR HEMOGLOBIN CONCENTRATION [1]: 39.62 G/DL
MEAN CORPUSCULAR VOLUME [1]: 63.03 fL
MONOCYTE [1]: 0.67%
NEUTROPHIL [1]: 9.17%
NUCLEATED RED BLOOD CELLS [1]: 0 /100WBC
PLATELET COUNT [1]: 1082.83 x10E3/uL
ALANINE AMINOTRANSFERASE [1]: 69.67 u/L
ALBUMIN [1]: 4.15 G/DL
ALKALINE PHOSPHATASE [1]: 430.5 u/L
ASPARTATE AMINOTRANSFERASE [1]: 90.83 u/L
BLOOD UREA NITROGEN [1]: 13 mg/dL
CARBON DIOXIDE [1]: 33 mmol/L
CHLORIDE [1]: 99.17 MEQ/L
CHOLESTEROL [1]: 70.5 mg/dL
CREATINE PHOSPHOKINASE [1]: 253.33 u/L
CREATININE [1]: 0.13 mg/dL
GLUCOSE [1]: 157.17 mg/dL
LACTATE DEHYDROGENASE [1]: 85 u/L
LIPASE [1]: 10 u/L
PHOSPHORUS [1]: 10.2 mg/dL
POTASSIUM [1]: 5.78 MEQ/L
SODIUM [1]: 144.12 MEQ/L
TOTAL BILIRUBIN [1]: 0.2 mg/dL
TOTAL PROTEIN [1]: 5.8 G/DL
URIC ACID [1]: 0.8 mg/dL
ABSOLUTE BASOPHIL [2]: 0 CELLS/uL
ABSOLUTE EOSINOPHIL [2]: 0 CELLS/uL
ABSOLUTE LYMPHOCYTE [2]: 10431 CELLS/uL
ABSOLUTE MONOCYTE [2]: 90.5 CELLS/uL
ABSOLUTE SEGMENTED NEUTROPHIL [2]: 1111.83 CELLS/uL
BASOPHIL [2]: 0%
EOSINOPHIL [2]: 0%
ERYTHROCYTE COUNT [2]: 5.51 x10E6/uL
HEMATOCRIT [2]: 34.67%
HEMOGLOBIN [2]: 13.5 G/DL
LEUKOCYTE COUNT [2]: 11.63 x10E3/uL
LYMPHOCYTE [2]: 89.67%
MEAN CORPUSCULAR HEMOGLOBIN [2]: 24.5 pg
MEAN CORPUSCULAR HEMOGLOBIN CONCENTRATION [2]: 38.95 G/DL
MEAN CORPUSCULAR VOLUME [2]: 62.87 fL
MONOCYTE [2]: 0.67%
NEUTROPHIL [2]: 9.67%
NUCLEATED RED BLOOD CELLS [2]: 0 /100WBC
PLATELET COUNT [2]: 1052.67 x10E3/uL
ALANINE AMINOTRANSFERASE [2]: 54.67 u/L
ALBUMIN [2]: 4.15 G/DL
ALKALINE PHOSPHATASE [2]: 359.83 u/L
ASPARTATE AMINOTRANSFERASE [2]: 83 u/L
BLOOD UREA NITROGEN [2]: 13.5 mg/dL
CARBON DIOXIDE [2]: 27.17 mmol/L
CHLORIDE [2]: 98.5 MEQ/L
CHOLESTEROL [2]: 66.83 mg/dL
CREATINE PHOSPHOKINASE [2]: 256.17 u/L
CREATININE [2]: 0.19 mg/dL
GLUCOSE [2]: 171.33 mg/dL
LACTATE DEHYDROGENASE [2]: 91.5 u/L
LIPASE [2]: 10.5 u/L
PHOSPHORUS [2]: 8.72 mg/dL
POTASSIUM [2]: 5.34 MEQ/L
SODIUM [2]: 142.53 MEQ/L
TOTAL BILIRUBIN [2]: 0.2 mg/dL
TOTAL PROTEIN [2]: 6.05 G/DL
URIC ACID [2]: 0.6 mg/dL
ABSOLUTE BASOPHIL [3]: 0 CELLS/uL
ABSOLUTE EOSINOPHIL [3]: 58.67 CELLS/uL
ABSOLUTE LYMPHOCYTE [3]: 9448 CELLS/uL
ABSOLUTE MONOCYTE [3]: 29.33 CELLS/uL
ABSOLUTE SEGMENTED NEUTROPHIL [3]: 530.67 CELLS/uL
BASOPHIL [3]: 0%
EOSINOPHIL [3]: 0.67%
ERYTHROCYTE COUNT [3]: 4.69 x10E6/uL
HEMATOCRIT [3]: 30.17%
HEMOGLOBIN [3]: 12.1 G/DL
LEUKOCYTE COUNT [3]: 10.07 x10E3/uL
LYMPHOCYTE [3]: 93.33%
MEAN CORPUSCULAR HEMOGLOBIN [3]: 25.83 pg
MEAN CORPUSCULAR HEMOGLOBIN CONCENTRATION [3]: 40.1 G/DL
MEAN CORPUSCULAR VOLUME [3]: 64.4 fL
MONOCYTE [3]: 0.33%
NEUTROPHIL [3]: 5.67%
NUCLEATED RED BLOOD CELLS [3]: 0 /100WBC
PLATELET COUNT [3]: 951 x10E3/uL
ALANINE AMINOTRANSFERASE [3]: 86 u/L
ALBUMIN [3]: 4.17 G/DL
ALKALINE PHOSPHATASE [3]: 369 u/L
ASPARTATE AMINOTRANSFERASE [3]: 104.67 u/L
BLOOD UREA NITROGEN [3]: 13.5 mg/dL
CARBON DIOXIDE [3]: 32 mmol/L
CHLORIDE [3]: 101.33 MEQ/L
CHOLESTEROL [3]: 79.33 mg/dL
CREATINE PHOSPHOKINASE [3]: 304 u/L
CREATININE [3]: 0.15 mg/dL
GLUCOSE [3]: 156 mg/dL
LACTATE DEHYDROGENASE [3]: 85.33 u/L
LIPASE [3]: 23.33 u/L
PHOSPHORUS [3]: 9.53 mg/dL
POTASSIUM [3]: 5.79 MEQ/L
SODIUM [3]: 145.73 MEQ/L
TOTAL BILIRUBIN [3]: 0.2 mg/dL
TOTAL PROTEIN [3]: 5.7 G/DL
URIC ACID [3]: 0.53 mg/dL
ABSOLUTE BASOPHIL [4]: 0 CELLS/uL
ABSOLUTE EOSINOPHIL [4]: 0 CELLS/uL
ABSOLUTE LYMPHOCYTE [4]: 9532 CELLS/uL
ABSOLUTE MONOCYTE [4]: 142 CELLS/uL
ABSOLUTE SEGMENTED NEUTROPHIL [4]: 926 CELLS/uL
BASOPHIL [4]: 0%
EOSINOPHIL [4]: 0%
ERYTHROCYTE COUNT [4]: 5.39 x10E6/uL
HEMATOCRIT [4]: 34.33%
HEMOGLOBIN [4]: 13.4 G/DL
LEUKOCYTE COUNT [4]: 10.6 x10E3/uL
LYMPHOCYTE [4]: 90%
MEAN CORPUSCULAR HEMOGLOBIN [4]: 24.83 pg
MEAN CORPUSCULAR HEMOGLOBIN CONCENTRATION [4]: 39.03 G/DL
MEAN CORPUSCULAR VOLUME [4]: 63.63 fL
MONOCYTE [4]: 1.33%
NEUTROPHIL [4]: 8.67%
NUCLEATED RED BLOOD CELLS [4]: 0 /100WBC
PLATELET COUNT [4]: 1012.67 x10E3/uL
ALANINE AMINOTRANSFERASE [4]: 59 u/L
ALBUMIN [4]: 4.1 G/DL
ALKALINE PHOSPHATASE [4]: 356.67 u/L
ASPARTATE AMINOTRANSFERASE [4]: 89.33 u/L
BLOOD UREA NITROGEN [4]: 11.33 mg/dL
CARBON DIOXIDE [4]: 27.67 mmol/L
CHLORIDE [4]: 98.67 MEQ/L
CHOLESTEROL [4]: 69 mg/dL
CREATINE PHOSPHOKINASE [4]: 329.67 u/L
CREATININE [4]: 0.17 mg/dL
GLUCOSE [4]: 164.33 mg/dL
LACTATE DEHYDROGENASE [4]: 89 u/L
LIPASE [4]: 11.67 u/L
PHOSPHORUS [4]: 9.13 mg/dL
POTASSIUM [4]: 5.65 MEQ/L
SODIUM [4]: 145.03 MEQ/L
TOTAL BILIRUBIN [4]: 0.2 mg/dL
TOTAL PROTEIN [4]: 6.13 G/DL
URIC ACID [4]: 0.57 mg/dL

Source: ChEMBL document CHEMBL3885881, “DrugMatrix”
